# According to patent US20240016729A1, “INJECTABLE FORMULATIONS OF IBUDILAST” (MediciNova, Inc., priority 2022, published 2024):
# What was measured:
# [1] = Initial solubility screen with various excipients; format: physicochemical; conditions: for solubility at 24 h: fully dissolved after 24 h
# [2] = Follow-up solubility assessment (cosolvent mixtures, surfactants); format: physicochemical; conditions: thermodynamic from solid, ibudilast conc. 75 mg/mL
# Method: Solubility of ibudilast was assessed using cosolvent mixtures with and without water, increased surfactant concentrations, or a combination of surfactant and cosolvents as shown in the following table.
smiles,measurement,setting,value
"CC(C)C(=O)c1c(C(C)C)nn2ccccc12 [ibudilast, 3-isobutyryl-2-isopropylpyrazolo[1,5-a]pyridine]",solubility,"[1]; aqueous buffer, thermodynamic from solid, acetate buffer pH 5, 50 mM, ibudilast conc. 5 mg/mL",0.175 mg/mL
same,solubility,"[1]; aqueous buffer, thermodynamic from solid, borate buffer pH 9, 50 mM, ibudilast conc. 5 mg/mL",0.171 mg/mL
same,solubility,"[1]; aqueous buffer, thermodynamic from solid, citrate buffer pH 3, 50 mM, ibudilast conc. 5 mg/mL",0.375 mg/mL
same,solubility,"[1]; aqueous buffer, thermodynamic from solid, phosphate buffer pH 7.5, 50 mM, ibudilast conc. 5 mg/mL",0.175 mg/mL
same,solubility,"[1]; aqueous with cosolvent or surfactant or cyclodextrin, thermodynamic from solid, HP-β-CD 10% w/v, ibudilast conc. 25 mg/mL",2.11 mg/mL
same,solubility,"[1]; aqueous with cosolvent or surfactant or cyclodextrin, thermodynamic from solid, HP-β-CD 30% w/v, ibudilast conc. 25 mg/mL",6.72 mg/mL
same,solubility,"[1]; aqueous with cosolvent or surfactant or cyclodextrin, thermodynamic from solid, Kolliphor ELP 5% w/v, ibudilast conc. 25 mg/mL",6.82 mg/mL
same,solubility at 24 h,"[1]; aqueous with cosolvent or surfactant or cyclodextrin, thermodynamic from solid, Kolliphor ELP 30% w/v, ibudilast conc. 25 mg/mL, solubility may be higher",28 mg/mL
same,solubility,"[1]; aqueous with cosolvent or surfactant or cyclodextrin, thermodynamic from solid, Kolliphor HS 15 5% w/v, ibudilast conc. 25 mg/mL",5.64 mg/mL
same,solubility,"[1]; aqueous with cosolvent or surfactant or cyclodextrin, thermodynamic from solid, Kolliphor HS 15 50% w/v, ibudilast conc. 25 mg/mL",22.8 mg/mL
same,solubility,"[1]; aqueous with cosolvent or surfactant or cyclodextrin, thermodynamic from solid, Kolliphor RH 40 5% w/v, ibudilast conc. 25 mg/mL",5.58 mg/mL
same,solubility,"[1]; aqueous with cosolvent or surfactant or cyclodextrin, thermodynamic from solid, Kolliphor RH 40 30% w/v, ibudilast conc. 25 mg/mL",29.5 mg/mL
same,solubility,"[1]; aqueous with cosolvent or surfactant or cyclodextrin, thermodynamic from solid, PEG 400 25% w/v, ibudilast conc. 25 mg/mL",1.11 mg/mL
same,solubility,"[1]; aqueous with cosolvent or surfactant or cyclodextrin, thermodynamic from solid, SBE-β-CD 10% w/v, ibudilast conc. 25 mg/mL",3.79 mg/mL
same,solubility,"[1]; aqueous with cosolvent or surfactant or cyclodextrin, thermodynamic from solid, SBE-β-CD 30% w/v, ibudilast conc. 25 mg/mL",11.9 mg/mL
same,solubility,"[1]; aqueous with cosolvent or surfactant or cyclodextrin, thermodynamic from solid, Tween 20 5% w/v, ibudilast conc. 25 mg/mL",3.21 mg/mL
same,solubility at 24 h,"[1]; aqueous with cosolvent or surfactant or cyclodextrin, thermodynamic from solid, Tween 20 50% w/v, ibudilast conc. 25 mg/mL, solubility may be higher",27.2 mg/mL
same,solubility,"[1]; aqueous with cosolvent or surfactant or cyclodextrin, thermodynamic from solid, Tween 80 5% w/v, ibudilast conc. 25 mg/mL",4.79 mg/mL
same,solubility,"[1]; aqueous with cosolvent or surfactant or cyclodextrin, thermodynamic from solid, Tween 80 30% w/v, ibudilast conc. 25 mg/mL",21.5 mg/mL
same,solubility,"[1]; aqueous with cosolvent or surfactant or cyclodextrin, thermodynamic from solid, ethanol 25% w/v, ibudilast conc. 25 mg/mL",4.15 mg/mL
same,solubility,"[1]; aqueous with cosolvent or surfactant or cyclodextrin, thermodynamic from solid, glycerol 25% w/v, ibudilast conc. 25 mg/mL",0.385 mg/mL
same,solubility,"[1]; organic solvent or mixture, thermodynamic from solid, PEG 400 100% w/v, more ibudilast added up to 50 mg/mL after 2 h tumbling, solubility may be higher",51.6 mg/mL
same,solubility,"[1]; organic solvent or mixture, thermodynamic from solid, ethanol 100% w/v, more ibudilast added up to 50 mg/mL after 2 h tumbling, solubility may be higher",50 mg/mL
same,solubility,"[1]; organic solvent or mixture, thermodynamic from solid, glycerol 100% w/v, ibudilast conc. 25 mg/mL",10.3 mg/mL
same,solubility,"[1]; organic solvent or mixture, thermodynamic from solid, propylene glycol 100% w/v, more ibudilast added up to 50 mg/mL after 2 h tumbling, solubility may be higher",52.9 mg/mL
same,solubility,"[1]; water, ibudilast conc. 5 mg/mL",0.186 mg/mL
same,solubility,"[2]; Kolliphor ELP/ethanol/water 5/50/45 % w/v, aqueous with cosolvent or surfactant or cyclodextrin",83.7 mg/mL
same,solubility,"[2]; Kolliphor ELP/propylene glycol/water 5/50/45 % w/v, aqueous with cosolvent or surfactant or cyclodextrin",19.4 mg/mL
same,solubility,"[2]; Kolliphor ELP/propylene glycol/water 30/50/20 % w/v, aqueous with cosolvent or surfactant or cyclodextrin",72.9 mg/mL
same,solubility,"[2]; Kolliphor ELP/water 30/70 % w/v, aqueous with cosolvent or surfactant or cyclodextrin",42.7 mg/mL
same,solubility,"[2]; Kolliphor ELP/water 80/20 % w/v, aqueous with cosolvent or surfactant or cyclodextrin, less than 5 mL added due to viscosity of medium",97.6 mg/mL
same,solubility,"[2]; PEG 400/water 50/50 % w/v cosolvent mixture, aqueous with cosolvent or surfactant or cyclodextrin, PEG 400/water 50/50 % w/v",9.22 mg/mL
same,solubility,"[2]; Tween 80/ethanol/water 5/50/45 % w/v, aqueous with cosolvent or surfactant or cyclodextrin",84 mg/mL
same,solubility,"[2]; Tween 80/propylene glycol/water 5/50/45 % w/v, aqueous with cosolvent or surfactant or cyclodextrin",14.8 mg/mL
same,solubility,"[2]; Tween 80/propylene glycol/water 30/50/20 % w/v, aqueous with cosolvent or surfactant or cyclodextrin",76.3 mg/mL
same,solubility,"[2]; Tween 80/water 30/70 % w/v, aqueous with cosolvent or surfactant or cyclodextrin",31.9 mg/mL
same,solubility,"[2]; Tween 80/water 80/20 % w/v, aqueous with cosolvent or surfactant or cyclodextrin, less than 5 mL added due to viscosity of medium",84.4 mg/mL
same,solubility,"[2]; aqueous with cosolvent or surfactant or cyclodextrin, propylene glycol/ethanol/water 50/25/25 % w/v",71.4 mg/mL
same,solubility,"[2]; ethanol/water 50/50 % w/v, aqueous with cosolvent or surfactant or cyclodextrin",72.6 mg/mL
same,solubility,"[2]; organic solvent or mixture, propylene glycol/PEG 400/glycerol 50/25/25 % w/v",68.7 mg/mL
same,solubility,"[2]; organic solvent or mixture, propylene glycol/ethanol/glycerol 50/25/25 % w/v",71.9 mg/mL
same,solubility,"[2]; propylene glycol/PEG 400/water 50/25/25 % w/v, aqueous with cosolvent or surfactant or cyclodextrin",31.3 mg/mL
same,solubility,"[2]; propylene glycol/water 50/50 % w/v, aqueous with cosolvent or surfactant or cyclodextrin",5.82 mg/mL
same,solubility,"[2]; propylene glycol/water 80/20 % w/v, aqueous with cosolvent or surfactant or cyclodextrin",37.3 mg/mL
